Experimental data from patent publication US5030760A, “Tetrahydrophthalimides, and their production and use” (Sumitomo Chemical Company, Ltd., priority 1981, dated 1991).

How the values were obtained:
cotton = test: Test Example 4, pre-emergence treatment, phytotoxicity to cotton; format: in vivo; conditions: 20 days; further: ranges in brackets are in %
Procedure: (§1) The application of the tetrahydrophthalimides (I) as herbicides will be illustratively shown in the following Examples wherein the phytotoxicity to cultivated plants and the herbicidal activity on weeds were evaluated as follows: the aerial parts of the test plants were cut off and weighed (fresh weight); the percentage of the fresh weight of the treated plant to that of the untreated plant was calculated with the latter fresh weight taken as 100; and the crop damage and the herbicidal activity were evaluated by the standard given in the table below. The rating values of phytotoxicity, 0 and 1, and those of herbicidal effect, 5 and 4, are generally regarded as satisfactory to protect cultivated plants and control weeds, respectively. The rating values in the paddy field test alone were calculated from the dry weight of the test plants.
(§2) Plastic beakers (diameter, 10 cm; height, 10 cm) were filled with upland field soil, and the seeds of corn, cotton and soybean and the seeds of morningglory, velvetleaf, Johnsongrass and green foxtail were separately sown in the beakers. A designed amount of the test compound was sprayed over the top by means of a small hand sprayer. After the spraying, the test plants were grown for 20 days in the greenhouse, and herbicidal activity and phytotoxicity were examined. In this pre-emergence treatment, the test compounds were formulated into an emulsifiable concentrate according to Preparation Example 2 and applied at a spray volume of 5 liters per are by dispersing it in water with the addition of a spreading agent.

rice plant = test: Test Example 6, paddy pot perfusion, phytotoxicity to rice plant; format: in vivo; conditions: 3 weeks, dry weight; further: ranges in brackets are in %
Procedure: as §1
(§3) Wagner's pots (1/5000 are) were filled with paddy field soil containing the seeds of broad-leaved weeds (e.g. monochoria, false pimpernel, toothcup) and the seeds of barnyardgrass and hardstem bulrush, and water was poured therein until the depth of water became 4 cm. Rice seedlings of the 3.5-leaf stage and the tubers of arrowhead were transplanted therein and grown for 2 days in a greenhouse. A designed amount of the test compound formulated in an emulsifiable concentrate according to Preparation Example 2 was applied to the pots by perfusion. Thereafter, the test plants were grown for an additional 3 weeks in the greenhouse, and herbicidal activity and phytotoxicity were examined. In this treatment, the emulsifiable concentrate was dispersed in water for application at a perfusion volume of 10 liters per are.

jimsonweed = test: Test Example 5, spraying over the top, herbicidal activity; format: in vivo, Datura stramonium; conditions: sprayed over the top, 20 days; further: ranges in brackets are in %
Procedure: as §1
(§4) Plastic trays (35 cm×25 cm×15 cm) were filled with upland field soil, and the seeds of tall morningglory, velvetleaf, jimsonweed, sicklepod, hemp sesbania, prickly side, Johnsongrass, green foxtail and large crabgrass and the seeds of soybean were sown therein. A designed amount of the test compound formulated into a wettable powder according to Preparation Example 1 and dispersed in water was sprayed over the top by means of a small hand sprayer at a spray volume of 5 liters per are. After the spraying, the test plants were grown in greenhouse for 20 days, and phytotoxicity and herbicidal activity were examined.

green foxtail [1] = test: Test Example 4, pre-emergence treatment, herbicidal activity; format: in vivo, Setaria viridis; conditions: 20 days; further: ranges in brackets are in %
Procedure: as §1, §2

velvetleaf [2] = test: Test Example 1, foliar treatment, herbicidal activity; format: in vivo, Abutilon theophrasti; conditions: 3 weeks; further: ranges in brackets are in %
Summary of the method: (§5)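 Crops and weeds sown in upland soil, greenhouse-grown 2 weeks, then sprayed on foliage with compound as emulsifiable concentrate in water plus spreading agent at 5 liters per are. Scored 3 weeks later from aerial fresh weight as percent of untreated plants, converted to a rating scale.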

Johnsongrass [3] = test: Test Example 4, pre-emergence treatment, herbicidal activity; format: in vivo, Sorghum halepense; conditions: 20 days; further: ranges in brackets are in %
Procedure: as §1, §2

broad-leaved weed = test: Test Example 6, paddy pot perfusion, herbicidal activity; format: in vivo, monochoria, false pimpernel, toothcup; conditions: 3 weeks, dry weight; further: ranges in brackets are in %
Procedure: as §1, §3

morningglory = test: Test Example 4, pre-emergence treatment, herbicidal activity; format: in vivo; conditions: 20 days; further: ranges in brackets are in %
Procedure: as §1, §2

barnyardgrass [4] = test: Test Example 1, foliar treatment, herbicidal activity; format: in vivo, Echinochloa crus-galli; conditions: 3 weeks; further: ranges in brackets are in %
Summary of the method: as §5

tall morningglory = test: Test Example 5, spraying over the top, herbicidal activity; format: in vivo, Ipomoea purpurea; conditions: sprayed over the top, 20 days; further: ranges in brackets are in %
Procedure: as §1, §4

wild mustard = test: Test Example 1, foliar treatment, herbicidal activity; format: in vivo, Brassica kaber; conditions: 3 weeks
Summary of the method: as §5

soybean [5] = test: Test Example 5, spraying over the top, phytotoxicity to soybean; format: in vivo; conditions: sprayed over the top, 20 days; further: ranges in brackets are in %
Procedure: as §1, §4

hemp sesbania = test: Test Example 5, spraying over the top, herbicidal activity; format: in vivo, Sesbania exaltator; conditions: sprayed over the top, 20 days; further: ranges in brackets are in %
Procedure: as §1, §4

green foxtail [6] = test: as above; format: in vivo, Setaria viridis; conditions: sprayed over the top, 20 days
Procedure: as §1, §4

wild oat = test: Test Example 1, foliar treatment, herbicidal activity; format: in vivo, Avena fatua; conditions: 3 weeks; further: ranges in brackets are in %
Summary of the method: as §5

corn [7] = test: Test Example 4, pre-emergence treatment, phytotoxicity to corn; format: in vivo; conditions: 20 days; further: ranges in brackets are in %
Procedure: as §1, §2

barnyardgrass [8] = test: Test Example 6, paddy pot perfusion, herbicidal activity; format: in vivo, Echinochloa crus-galli; conditions: 3 weeks, dry weight; further: ranges in brackets are in %
Procedure: as §1, §3

sicklepod = test: Test Example 5, spraying over the top, herbicidal activity; format: in vivo, Cassia obtusifolia; conditions: sprayed over the top, 20 days; further: ranges in brackets are in %
Procedure: as §1, §4

large crabgrass = test: as above; format: in vivo, Digitaria sanguinalis; conditions: sprayed over the top, 20 days; further: ranges in brackets are in %
Procedure: as §1, §4

prickly sida = test: as above; format: in vivo, Sida spinosa; conditions: sprayed over the top, 20 days; further: ranges in brackets are in %
Procedure: as §1, §4

velvetleaf [9] = test: Test Example 4, pre-emergence treatment, herbicidal activity; format: in vivo, Abutilon theophrasti; conditions: 20 days; further: ranges in brackets are in %
Procedure: as §1, §2

soybean [10] = test: Test Example 4, pre-emergence treatment, phytotoxicity to soybean; format: in vivo; conditions: 20 days; further: ranges in brackets are in %
Procedure: as §1, §2

arrowhead = test: Test Example 6, paddy pot perfusion, herbicidal activity; format: in vivo, Sagittaria pygmaea; conditions: 3 weeks, dry weight; further: ranges in brackets are in %
Procedure: as §1, §3

corn [11] = test: Test Example 1, foliar treatment, phytotoxicity to corn; format: in vivo; conditions: 3 weeks; further: ranges in brackets are in %
Summary of the method: as §5

Johnsongrass [12] = test: Test Example 5, spraying over the top, herbicidal activity; format: in vivo, Sorghum halepense; conditions: sprayed over the top, 20 days; further: ranges in brackets are in %
Procedure: as §1, §4

velvetleaf [13] = test: as above; format: in vivo, Abutilon theophrasti; conditions: sprayed over the top, 20 days
Procedure: as §1, §4

hardstem bulrush = test: Test Example 6, paddy pot perfusion, herbicidal activity; format: in vivo, Scirpus juncoides; conditions: 2.5 g/are, 3 weeks, dry weight; further: ranges in brackets are in %
Procedure: as §1, §3
Wherever Herbicidal activity, Green foxtail is given: ranges in brackets are in %.
Wherever Herbicidal activity, Velvetleaf is given: ranges in brackets are in %.

COc1cc(N2C(=O)C3=C(CCCC3)C2=O)c(F)cc1Cl [Compound No. 1]
Phytotoxicity, Cotton (cotton; 2.5 g/are): 0 (100) | Phytotoxicity, Cotton (cotton; 10 g/are): 2 (80-89) | Phytotoxicity, Rice plant (rice plant; 1.25 g/are): 1 (90-99) | Phytotoxicity, Rice plant (rice plant; 2.5 g/are): 1 (90-99) | Herbicidal activity, Jimsonweed (jimsonweed; 3 g/are): 5 (0) | Herbicidal activity, Jimsonweed (jimsonweed; 9 g/are): 5 (0) | Herbicidal activity, Green foxtail (green foxtail [1]; 2.5 g/are): 4 (1-10) | Herbicidal activity, Green foxtail (green foxtail [1]; 10 g/are): 5 (0) | Herbicidal activity, Velvetleaf (velvetleaf [2]; 1.25 g/are): 5 (0) | Herbicidal activity, Velvetleaf (velvetleaf [2]; 5 g/are): 5 (0) | Herbicidal activity, Johnsongrass (Johnsongrass [3]; 2.5 g/are): 5 (0) | Herbicidal activity, Johnsongrass (Johnsongrass [3]; 10 g/are): 5 (0) | Herbicidal activity, Broad-leaved weed (broad-leaved weed; 1.25 g/are): 5 (0) | Herbicidal activity, Broad-leaved weed (broad-leaved weed; 2.5 g/are): 5 (0) | Herbicidal activity, Morningglory (morningglory; 2.5 g/are): 4 (1-10) | Herbicidal activity, Morningglory (morningglory; 10 g/are): 5 (0) | Herbicidal activity, Barnyardgrass (barnyardgrass [4]; 1.25 g/are): 1 (41-60) | Herbicidal activity, Barnyardgrass (barnyardgrass [4]; 5 g/are): 5 (0) | Herbicidal activity, Tall morningglory (tall morningglory; 3 g/are): 4 (1-10) | Herbicidal activity, Tall morningglory (tall morningglory; 9 g/are): 5 (0) | Herbicidal activity, Wild mustard (wild mustard; 1.25 g/are): 5 (0) | Herbicidal activity, Wild mustard (wild mustard; 5 g/are): 5 (0) | Phytotoxicity, Soybean (soybean [5]; 3 g/are): 0 (100) | Phytotoxicity, Soybean (soybean [5]; 9 g/are): 0 (100) | Herbicidal activity, Hemp sesbania (hemp sesbania; 3 g/are): 5 (0) | Herbicidal activity, Hemp sesbania (hemp sesbania; 9 g/are): 5 (0) | Herbicidal activity, Green foxtail (green foxtail [6]; 3 g/are): 5 (0) | Herbicidal activity, Green foxtail (green foxtail [6]; 9 g/are): 5 (0) | Herbicidal activity, Wild cat (wild oat; 1.25 g/are): 1 (41-60) | Herbicidal activity, Wild cat (wild oat; 5 g/are): 5 (0) | Phytotoxicity, Corn (corn [7]; 2.5 g/are): 1 (90-99) | Phytotoxicity, Corn (corn [7]; 10 g/are): 2 (80-89) | Herbicidal activity, Barnyardgrass (barnyardgrass [8]; 1.25 g/are): 4 (1-10) | Herbicidal activity, Barnyardgrass (barnyardgrass [8]; 2.5 g/are): 5 (0) | Herbicidal activity, Sicklepod (sicklepod; 3 g/are): 4 (1-10) | Herbicidal activity, Sicklepod (sicklepod; 9 g/are): 5 (0) | Herbicidal activity, Large crabgrass (large crabgrass; 3 g/are): 5 (0) | Herbicidal activity, Large crabgrass (large crabgrass; 9 g/are): 5 (0) | Herbicidal activity, Prickly sida (prickly sida; 3 g/are): 5 (0) | Herbicidal activity, Prickly sida (prickly sida; 9 g/are): 5 (0) | Herbicidal activity, Velvetleaf (velvetleaf [9]; 2.5 g/are): 5 (0) | Herbicidal activity, Velvetleaf (velvetleaf [9]; 10 g/are): 5 (0) | Phytotoxicity, Soybean (soybean [10]; 2.5 g/are): 0 (100) | Phytotoxicity, Soybean (soybean [10]; 10 g/are): 0 (100) | Herbicidal activity, Arrowhead (arrowhead; 1.25 g/are): 4 (1-10) | Herbicidal activity, Arrowhead (arrowhead; 2.5 g/are): 5 (0) | Phytotoxicity, Corn (corn [11]; 1.25 g/are): 0 (100) | Phytotoxicity, Corn (corn [11]; 5 g/are): 1 (90-99) | Herbicidal activity, Johnsongrass (Johnsongrass [12]; 3 g/are): 5 (0) | Herbicidal activity, Johnsongrass (Johnsongrass [12]; 9 g/are): 5 (0) | Herbicidal activity, Velvetleaf (velvetleaf [13]; 3 g/are): 5 (0) | Herbicidal activity, Velvetleaf (velvetleaf [13]; 9 g/are): 5 (0) | Herbicidal activity, Hardstem bulrush (hardstem bulrush): 4 (1-10)
